Test results published in patent publication US4474800A, “Epoxysuccinyl amino acid derivatives” (Taisho Pharmaceutical Co., Ltd., priority 1980, dated 1984).

Legend:
[1] = biological target: T1, CANP prepared from a muscle of hereditary muscular dystrophy chicken (Gallus gallus, UniProt P00789); assay: CANP inhibitory activity (method of Ishiura et al.); format: biochemical; settings: 50% inhibition in molar ratio to the enzyme
T1 construct: from tissue; host or cells: muscle of hereditary muscular dystrophy chicken
T1 sequence (P00789 1-705): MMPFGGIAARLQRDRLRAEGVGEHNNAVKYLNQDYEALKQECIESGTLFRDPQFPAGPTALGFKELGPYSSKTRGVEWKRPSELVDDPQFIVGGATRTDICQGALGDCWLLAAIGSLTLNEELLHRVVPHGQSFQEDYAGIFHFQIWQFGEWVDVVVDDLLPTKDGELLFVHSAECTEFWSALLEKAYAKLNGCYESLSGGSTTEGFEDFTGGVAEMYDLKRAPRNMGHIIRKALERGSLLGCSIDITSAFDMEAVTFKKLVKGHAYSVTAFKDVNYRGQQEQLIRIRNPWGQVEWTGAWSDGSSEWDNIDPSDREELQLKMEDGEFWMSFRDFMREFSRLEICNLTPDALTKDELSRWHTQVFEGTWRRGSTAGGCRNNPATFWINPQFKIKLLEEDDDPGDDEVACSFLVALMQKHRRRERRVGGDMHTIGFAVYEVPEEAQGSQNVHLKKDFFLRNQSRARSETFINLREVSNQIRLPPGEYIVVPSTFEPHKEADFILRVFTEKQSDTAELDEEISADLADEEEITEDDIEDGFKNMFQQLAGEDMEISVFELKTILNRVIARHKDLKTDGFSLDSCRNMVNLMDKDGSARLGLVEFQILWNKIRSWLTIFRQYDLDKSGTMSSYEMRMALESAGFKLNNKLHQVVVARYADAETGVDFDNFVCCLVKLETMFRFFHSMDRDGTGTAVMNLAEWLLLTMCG
Method: Their muscular dystrophy inhibitory activity was assayed by the method of Ishiura et al., [J. of Biochem., 84, 225 (1978)] using CANP prepared from a muscle of hereditary muscular dystrophy chicken, and the resulting value for 50% inhibition in the molar ratios for the enzyme expressed as ID50 (mole/mole) is shown in Table 1 below.

[2] = Concentration in rat plasma after subcutaneous administration; format: in vivo; settings: sc, rats, 50 mg/kg, an hour after administration
Method: The compounds of the present invention are better absorbed by the subcutaneous route in mammals such as rats or rabbits, as compared with the epoxysuccinic acid derivatives of the German Patent Laid Open Application described above and Chemical Abstracts, 87, 68129a (1977). To determine absorption, these compounds were administered subcutaneously to rats at a dose of 50 mg/kg, and the concentration of the test compound in rat plasma at an hour after the administration is shown in following Table 1.

papain = biological target: T2, papain (Carica papaya, UniProt P00784); assay: Papain inhibitory activity (method of K. Hanada et al.); format: biochemical; settings: papain 80 μg/ml, Sigma, twice crystallized
T2 construct: purchased Sigma Chem. Co
T2 sequence (P00784 134-345): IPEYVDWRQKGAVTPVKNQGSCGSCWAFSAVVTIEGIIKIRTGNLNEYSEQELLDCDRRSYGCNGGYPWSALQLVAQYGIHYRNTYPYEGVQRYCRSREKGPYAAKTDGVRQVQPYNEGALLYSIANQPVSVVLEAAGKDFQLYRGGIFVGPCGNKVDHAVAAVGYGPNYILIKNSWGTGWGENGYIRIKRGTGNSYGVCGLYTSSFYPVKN
Method: Papain inhibitory activity of the compounds of the present invention was assayed by the method of K. Hanada et al. [Agric. Biol. Chem., 42, (3) 523 (1978)] using papain (80 μg/ml, Sigma Chem. Co.) after twice crystallization.

SMILES | CANP Inhibitory Activity ID50 (mole/mole) [1] | concentration at 1 h [2] | Papain inhibitory activity ID50 (amount of inhibitor for 50% inhibition) (papain)
CC(C)C[C@H](NC(=O)C1OC1C(=O)OC1CCCCC1)C(=O)NCCCCNC(=O)OCc1ccccc1 (mixture of isomers) [Compound 6, N-[N-(DL-3-trans-cyclohexyloxycarbonyloxirane-2-carbonyl)-L-leucyl]-N'-benzyloxycarbonyl-1,4-diaminobutane] | 75 mole/mole | 1500 ng/mL | 0.142 µg
CC(C)C[C@H](NC(=O)C1OC1C(=O)O)C(=O)NCCCCNC(=O)OCc1ccccc1 (mixture of isomers) [Compound 11, N-[N-(DL-3-trans-carboxyoxirane-2-carbonyl)-L-leucyl]-N'-benzyloxycarbonyl-1,4-diaminobutane] | 19 mole/mole | 13000 ng/mL | 0.118 µg
CC(C)C[C@H](NC(=O)C1OC1C(=O)OCc1ccccc1)C(=O)NCCCCNC(=O)OCc1ccccc1 (mixture of isomers) [Compound 10, N-[N-(DL-3-trans-benzyloxycarbonyloxirane-2-carbonyl)-L-leucyl]-N'-benzyloxycarbonyl-1,4-diaminobutane] | 78 mole/mole | 1600 ng/mL | 0.260 µg
CCOC(=O)[C@H]1O[C@@H]1C(=O)O (relative stereo) [A, Ethyl hydrogen epoxysuccinate, reference compound] | 5,400 mole/mole | – | –
CC(C)C[C@H](NC(=O)C1OC1C(=O)O)C(=O)NCCCCN (mixture of isomers) [Compound 12, N-[N-(DL-3-trans-carboxyoxirane-2-carbonyl)-L-leucyl]-1,4-diaminobutane] | 55 mole/mole | 25000 ng/mL | 0.106 µg
O=C(O)[C@H]1O[C@@H]1C(=O)OCc1ccccc1 (relative stereo) [B, Benzyl hydrogen epoxysuccinate, reference compound] | 410 mole/mole | – | –
CC(=O)NCCCCNC(=O)[C@H](CC(C)C)NC(=O)C1OC1C(=O)OCc1ccccc1 (mixture of isomers) [Compound 8, N-[N-(DL-3-trans-benzyloxycarbonyloxirane-2-carbonyl)-L-leucyl]-N'-acetyl-1,4-diaminobutane] | 100 mole/mole | 1800 ng/mL | 0.123 µg
CC(C)C[C@H](NC(=O)C1OC1C(=O)OCc1ccccc1)C(=O)NCCNC(=O)OCc1ccccc1 (mixture of isomers) [Compound 3, N-[N-(DL-3-trans-benzyloxycarbonyloxirane-2-carbonyl)-L-leucyl]-N'-benzyloxycarbonyl-1,2-diaminoethane] | – | – | 0.203 µg
CC[C@H](C)[C@H](NC(=O)C1OC1C(=O)OCc1ccccc1)C(=O)NCCCCNC(=O)OCc1ccccc1 (mixture of isomers) [Compound 5, N-[N-(DL-3-benzyloxycarbonyloxirane-2-carbonyl)-L-isoleucyl]-N'-benzyloxycarbonyl-1,4-diaminobutane] | 92 mole/mole | 1400 ng/mL | 0.323 µg
CC(C)[C@H](NC(=O)C1OC1C(=O)OCc1ccccc1)C(=O)NCCCCNC(=O)OCc1ccccc1 (mixture of isomers) [Compound 4, N-[N-(DL-3-trans-benzyloxycarbonyloxirane-2-carbonyl)-L-valyl]-N'-benzyloxycarbonyl-1,4-diaminobutane] | 113 mole/mole | 1200 ng/mL | 0.436 µg
CC(C)C[C@H](NC(=O)C1OC1C(=O)OCc1ccccc1)C(=O)NCCCCNC(=O)c1ccccc1 (mixture of isomers) [Compound 9, N-[N-(DL-3-trans-benzyloxycarbonyloxirane-2-carbonyl)-L-leucyl]-N'-benzoyl-1,4-diaminobutane] | 89 mole/mole | 1300 ng/mL | 0.181 µg
CC(C)C[C@H](NC(=O)C1OC1C(=O)OCc1ccccc1)C(=O)NCCCCCNC(=O)OCc1ccccc1 (mixture of isomers) [Compound 2, N-[N-(DL-3-trans-benzyloxycarbonyloxirane-2-carbonyl)-L-leucyl]-N'-benzyloxycarbonyl-1,5-diaminopentane] | 121 mole/mole | 1500 ng/mL | 0.481 µg
CC(C)C[C@H](NC(=O)C1OC1C(=O)O)C(=O)O (stereo partly drawn) [E, N--(3carboxyoxirane-2-carbonyl)-L-leucine, reference compound] | 4,600 mole/mole | – | –
CCOC(=O)C1OC1C(=O)N[C@@H](CC(C)C)C(=O)OCc1ccccc1 (stereo partly drawn) [C, N--(3ethoxy-carbonyloxirane-2-carbonyl)-L-leucine benzyl ester, reference compound] | 580 mole/mole | – | –
CC(C)C[C@H](NC(=O)C1OC1C(=O)OC1CCCC1)C(=O)NCCCCNC(=O)OCc1ccccc1 (mixture of isomers) [Compound 7, N-[N-(DL-3-trans-cyclopentyloxycarbonyloxirane-2-carbonyl)-L-leucyl]-N'-benzyloxycarbonyl-1,4-diaminobutane] | – | – | 0.164 µg
CC(C)C[C@H](NC(=O)C1OC1C(=O)OCc1ccccc1)C(=O)NCCCCCCCNC(=O)OCc1ccccc1 (mixture of isomers) [Compound 1, N-[N-(DL-3-trans-benzyloxycarbonyloxirane-2-carbonyl)-L-leucyl]-N'-benzyloxycarbonyl-1,7-diaminoheptane] | – | – | 0.302 µg
